Assay results from patent US20070244153A1 (priority 2004, published 2007).

Columns and labels:
Assay type in all cases: in vivo
[1] = system: Plasmopara viticola; test: Controlling effect against grape downy mildew (leaf disk immersion, 250 ppm); details: grape leaf disk immersed 3 hours, 10th day after inoculation, untreated 60 to 70%
Method: The developed leaf of grape seedling (breed: Cabernet Sauvignon) grown in 1/2000 a pot was cut and prepared a leaf disk having a diameter of 32 mm. A solution of the compound in acetone was diluted with water to 250 ppm, and the leaf disk was immersed for 3 hours. The disk was taken from the agent solution, subjected to air-drying, and then inoculated by spray with a zoosporangia suspension of Plasmopara viticola. The test disk was incubated at 18° C. for 12 hours in a light-dark light cycle. On the 10th day after inoculation the infected area rate for the leaf disk was examined. Evaluation was carried out by the following criteria. The infected area rate for the untreated groups in the examination was 60 to 70%.

[2] = system: Pseudoperonospora cubensis; test: Controlling effect against cucumber downy mildew (spray on cucumber seedlings, 250 ppm); details: 250 ppm spray, cucumber seedling 1-leaf stage, 7th day after inoculation; untreated 60 to 80%
Method: A solution of the compound in acetone was diluted with water to 250 ppm, and the solution was sprayed to the cucumber seedling (breed: Sagamihangbak, two per plastic pot having a diameter of 7.5 cm) at 1-leaf stage in an amount of 10 mL of the compound/pot. After air-drying, the pot was transferred to a moist chamber provided in the greenhouse, and inoculated by spray with a zoosporic suspension of Pseudoperonospora cubensis. On the 7th day after inoculation the infected area rate for the leaves was examined. Evaluation was carried out by the following criteria.
The infected area rate for untreated groups in the examination was 60 to 80%.

[3] = system: Phytophthora infestans; details: 250 ppm spray, tomato seedling 4-leaf stage, 4th day after inoculation; untreated not less than 60%

For `Cc1ccc(C(=O)NC[C@@H](NC(=O)C(NC(=O)OC(C)(C)C)C2CCOC2)C(C)C)cc1` (mixture of isomers) [Compound No. 69, N-[2-methyl-1-(S)-[[(4-methylbenzoyl)amino]methyl]propyl]2-(RS)-[(1,1-dimethylethyloxycarbonyl)amino]-2-(tetrahydrofuran-3-yl)acetamide], the “Effect: controlling effect against grape downy mildew (infected area rate)” value [1] was “B (the infected area rate of 5% to less than 50%)”, the “Effect: controlling effect against cucumber downy mildew (infected area rate)” value [2] was “A (the infected area rate of less than 5%)” and the “Effect: controlling effect against tomato late blight (infected area rate)” value [3] was “A (Infected area rate of less than 5%)”.
With `Cc1ccc(C(=O)NCC(NC(=O)[C@@H](NC(=O)OC(C)C)C(C)C)C(C)C)cc1` (mixture of isomers) [Compound No. 151, N-[2-methyl-1-(RS)-[[(4-methylbenzoyl)amino]methyl]propyl]3-methyl-2-(S)-[(1-methylethyloxycarbonyl)amino]butyramide] the “Effect: controlling effect against cucumber downy mildew (infected area rate)” value [2] was “B (the infected area rate of 5% to less than 50%)” and the “Effect: controlling effect against tomato late blight (infected area rate)” value [3] was “A (Infected area rate of less than 5%)”.
`CC(CNC(=O)c1cc2ccccc2o1)NC(=O)[C@@H](NC(=O)OC(C)(C)C)C(C)C` (mixture of isomers) [Compound No. 652, N-[2-(RS)-[[(benzofuran-2-carbonyl)amino]-1-methyl]ethyl][3-methyl-2-(S)-[N-(1,1-dimethylethyloxycarbonyl)amino]]butyramide] was tested, and the “Effect: controlling effect against grape downy mildew (infected area rate)” value [1] was “B (the infected area rate of 5% to less than 50%)”, the “Effect: controlling effect against cucumber downy mildew (infected area rate)” value [2] was “A (the infected area rate of less than 5%)” and the “Effect: controlling effect against tomato late blight (infected area rate)” value [3] was “A (Infected area rate of less than 5%)”.
With `CC(C)OC(=O)N[C@H](C(=O)N[C@H](CNC(=O)C1COc2ccccc2O1)C(C)C)C(C)C` (mixture of isomers) [Compound No. 899, N-[2-methyl-1-(S)-[[[(1,4-benzodioxane)-2-(RS)-carbonyl]amino]methyl]propyl][3-methyl-2-(S)-[N-(1-methylethyloxycarbonyl)amino]]butyramide] the “Effect: controlling effect against grape downy mildew (infected area rate)” value [1] was “B (the infected area rate of 5% to less than 50%)”, the “Effect: controlling effect against cucumber downy mildew (infected area rate)” value [2] was “A (the infected area rate of less than 5%)” and the “Effect: controlling effect against tomato late blight (infected area rate)” value [3] was “A (Infected area rate of less than 5%)”.
`Cc1ccc(C(=O)NC[C@@H](NC(=O)[C@@H](NC(=O)OC(C)(C)C)c2ccccc2)C(C)C)cc1` [Compound No. 60, N-[2-methyl-1-(S)-[[(4-methylbenzoly)amino]methyl]propyl]2-(S)-[(1,1-dimethylethyloxycarbonyl)amino]-2-phenyl acetamide] was tested, and the “Effect: controlling effect against tomato late blight (infected area rate)” value [3] was “B (Infected area rate of 5% to less than 50%)”.
For `Cc1ccccc1C(=O)NC[C@@H](NC(=O)[C@@H](NC(=O)OC(C)C)C(C)C)C(C)C` [Compound No. 143, N-[2-methyl-1-(S)-[[(2-methylbenzoyl)amino]methyl]propyl]3-methyl-2-(S)-[(1-methylethyloxycarbonyl)amino]butyramide], the “Effect: controlling effect against cucumber downy mildew (infected area rate)” value [2] was “B (the infected area rate of 5% to less than 50%)” and the “Effect: controlling effect against tomato late blight (infected area rate)” value [3] was “A (Infected area rate of less than 5%)”.
With `CC(C)COC(=O)N[C@H](C(=O)N[C@H](CNC(=O)c1ccc(Cl)cc1)C(C)C)C(C)C` [Compound No. 205, N-[1-(S)-[[(4-chlorobenzoyl)amino]methyl]-2-methylpropyl]3-methyl-2-(S)-[(2-methylpropyloxycarbonyl)amino]butyramide] the “Effect: controlling effect against grape downy mildew (infected area rate)” value [1] was “B (the infected area rate of 5% to less than 50%)”, the “Effect: controlling effect against cucumber downy mildew (infected area rate)” value [2] was “A (the infected area rate of less than 5%)” and the “Effect: controlling effect against tomato late blight (infected area rate)” value [3] was “A (Infected area rate of less than 5%)”.
In the case of `Cc1ccc(C(=O)N[C@@H](CNC(=O)[C@@H](NC(=O)OCC(C)C)C(C)C)C(C)C)cc1` [Compound No. 274, N-[3-methyl-2-(R)-[(4-methylbenzoyl)amino]butyl]3-methyl-2-(S)-[(2-methylpropyloxycarbonyl)amino]butyramide], the “Effect: controlling effect against cucumber downy mildew (infected area rate)” value [2] is reported as “B (the infected area rate of 5% to less than 50%)” and the “Effect: controlling effect against tomato late blight (infected area rate)” value [3] is reported as “A (Infected area rate of less than 5%)”.
With `Cc1ccc(C(=O)N[C@@H](CNC(=O)[C@@H](NC(=O)OCc2ccccc2)C(C)C)C(C)C)cc1` [Compound No. 276, N-[3-methyl-2-(R)-[(4-methylbenzoyl)amino]butyl]2-(S)-[(benzyloxycarbonyl)amino]-3-methylbutyramide] the “Effect: controlling effect against tomato late blight (infected area rate)” value [3] was “B (Infected area rate of 5% to less than 50%)”.
In the case of `Cc1ccc(C(=O)N[C@H](CNC(=O)[C@@H](NC(=O)OCc2ccccc2)C(C)C)C(C)C)cc1` [Compound No. 281, N-[3-methyl-2-(S)-[(4-methylbenzoyl)amino]butyl]2-(S)-[(benzyloxycarbonyl)amino]-3-methylbutyramide], the “Effect: controlling effect against cucumber downy mildew (infected area rate)” value [2] is reported as “B (the infected area rate of 5% to less than 50%)” and the “Effect: controlling effect against tomato late blight (infected area rate)” value [3] is reported as “B (Infected area rate of 5% to less than 50%)”.
For `CC[C@H](C)[C@@H](CNC(=O)c1ccc(C)cc1)NC(=O)[C@@H](NC(=O)OC)C(C)C` [Compound No. 306, N-[2-(S)-methyl-1-(S)-[[(4-methylbenzoyl)amino]methyl]butyl]3-methyl-2-(S)-[(methyloxycarbonyl)amino]butyramide], the “Effect: controlling effect against grape downy mildew (infected area rate)” value [1] was “A (the infected area rate of less than 5%)”, the “Effect: controlling effect against cucumber downy mildew (infected area rate)” value [2] was “A (the infected area rate of less than 5%)” and the “Effect: controlling effect against tomato late blight (infected area rate)” value [3] was “A (Infected area rate of less than 5%)”.
With `CC(C)OC(=O)N[C@H](C(=O)NC[C@@H](NC(=O)c1cc2ccccc2o1)C(C)C)C(C)C` [Compound No. 675, N-[[2-(S)-[(benzofuran-2-carbonyl)amino]-3-methyl]butyl][2-(S)-[(1-methylethyloxycarbonyl)amino]-3-methyl]butyramide] the “Effect: controlling effect against cucumber downy mildew (infected area rate)” value [2] was “B (the infected area rate of 5% to less than 50%)” and the “Effect: controlling effect against tomato late blight (infected area rate)” value [3] was “A (Infected area rate of less than 5%)”.
With `CC(C)[C@H](NC(=O)OCc1ccccc1)C(=O)NC[C@@H](NC(=O)c1cc2ccccc2o1)C(C)C` [Compound No. 678, N-[3-methyl-2-(S)-[(benzofuran-2-carbonyl)amino]butyl]2-(S)-[(benzyloxycarbonyl)amino]-3-methylbutyramide] the “Effect: controlling effect against grape downy mildew (infected area rate)” value [1] was “B (the infected area rate of 5% to less than 50%)”, the “Effect: controlling effect against cucumber downy mildew (infected area rate)” value [2] was “A (the infected area rate of less than 5%)” and the “Effect: controlling effect against tomato late blight (infected area rate)” value [3] was “B (Infected area rate of 5% to less than 50%)”.
In the case of `CCOC(=O)N[C@H](C(=O)N[C@H](CNC(=O)c1cc2ccccc2o1)C(C)(C)C)C(C)C` [Compound No. 714, N-[1-(S)-[[(benzofuran-2-carbonyl)amino]methyl)-2,2-dimethylpropyl][3-methyl-2-(S)-[N-(ethyloxycarbonyl)amino]]butyramide], the “Effect: controlling effect against grape downy mildew (infected area rate)” value [1] is reported as “A (the infected area rate of less than 5%)”, the “Effect: controlling effect against cucumber downy mildew (infected area rate)” value [2] is reported as “A (the infected area rate of less than 5%)” and the “Effect: controlling effect against tomato late blight (infected area rate)” value [3] is reported as “A (Infected area rate of less than 5%)”.
For `CCOC(=O)N[C@H](C(=O)N[C@H](CNC(=O)c1cc2ccccc2o1)C(C)C)C(C)C` [Compound No. 772, N-[2-methyl-1-(S)-[[(benzofuran-2-carbonyl)amino]methyl]propyl][3-methyl-2-(S)-[N-(ethyloxycarbonyl)amino]]butyramide], the “Effect: controlling effect against grape downy mildew (infected area rate)” value [1] was “A (the infected area rate of less than 5%)”, the “Effect: controlling effect against cucumber downy mildew (infected area rate)” value [2] was “A (the infected area rate of less than 5%)” and the “Effect: controlling effect against tomato late blight (infected area rate)” value [3] was “A (Infected area rate of less than 5%)”.
For `CC(C)OC(=O)N[C@H](C(=O)N[C@H](CNC(=O)c1cc2ccccc2o1)C(C)C)C(C)C` [Compound No. 775, N-[2-methyl-1-(S)-[[(benzofuran-2-carbonyl)amino]methyl]propyl][3-methyl-2-(S)-[N-(1-methylethyloxycarbonyl)amino]]butyramide], the “Effect: controlling effect against grape downy mildew (infected area rate)” value [1] was “A (the infected area rate of less than 5%)”, the “Effect: controlling effect against cucumber downy mildew (infected area rate)” value [2] was “A (the infected area rate of less than 5%)” and the “Effect: controlling effect against tomato late blight (infected area rate)” value [3] was “A (Infected area rate of less than 5%)”.
`CC(C)[C@H](NC(=O)OCC1CCCO1)C(=O)N[C@H](CNC(=O)c1cc2ccccc2o1)C(C)C` (stereo partly drawn) [Compound No. 786, N-[1-(S)-[[(benzofuran-2-carbonyl)amino]methyl]-2-methylpropyl]3-methyl-2-(S)-[[(tetrahydrofuran-2-methyl)oxycarbonyl]amino]butyramide] was tested, and the “Effect: controlling effect against cucumber downy mildew (infected area rate)” value [2] was “A (the infected area rate of less than 5%)” and the “Effect: controlling effect against tomato late blight (infected area rate)” value [3] was “A (Infected area rate of less than 5%)”.
